Biological target: T1, IRAK-M (Homo sapiens, UniProt Q9Y616)
T1 sequence (Q9Y616 1-596): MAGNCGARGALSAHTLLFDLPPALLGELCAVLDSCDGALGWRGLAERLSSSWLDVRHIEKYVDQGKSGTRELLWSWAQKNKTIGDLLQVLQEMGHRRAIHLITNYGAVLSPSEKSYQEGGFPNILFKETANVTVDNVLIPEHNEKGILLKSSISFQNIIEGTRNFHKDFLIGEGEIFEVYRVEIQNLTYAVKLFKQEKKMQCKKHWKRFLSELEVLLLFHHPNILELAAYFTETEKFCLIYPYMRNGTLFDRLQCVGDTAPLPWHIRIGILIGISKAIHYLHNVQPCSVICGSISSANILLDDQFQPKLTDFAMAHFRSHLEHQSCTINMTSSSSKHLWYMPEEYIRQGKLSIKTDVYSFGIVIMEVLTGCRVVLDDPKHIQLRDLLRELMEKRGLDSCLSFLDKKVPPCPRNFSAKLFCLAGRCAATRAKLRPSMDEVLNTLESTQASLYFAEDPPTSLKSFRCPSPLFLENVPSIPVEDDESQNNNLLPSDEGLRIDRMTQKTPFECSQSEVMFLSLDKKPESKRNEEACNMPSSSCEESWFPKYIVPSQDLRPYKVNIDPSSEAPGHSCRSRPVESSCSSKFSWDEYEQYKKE
Experiment: IRAK-M binding inhibitory activity (KINOMEscan active site-dependent competitive assay)
Design: purchased Eurofins Discover X
Settings: concentration of the test compound 1 μM; first symbol of cell; read-out: IRAK-M binding inhibition activity % Ctrl
In short: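 Active site-dependent competition binding assay (KINOMEscan) against human IRAK-M. Result expressed as % Ctrl = (compound signal − positive control signal)/(DMSO signal − positive control signal) × 100, where DMSO = 100% Ctrl and control compound = 0% Ctrl.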

remaining binding at 1 µM [%]	SMILES
≥ 75	CCOc1ccc(Nc2ncnc3ccsc23)cc1 [Ref. example 65, N-(4-ethoxyphenyl)thieno[3,2-d]pyrimidin-4-amine]
50 to 75	COc1ccc(Nc2nc(C)nc3cc(C)sc23)cc1OC [Ref. example 66, N-(3,4-dimethoxyphenyl)-2,6-dimethylthieno[3,2-d]pyrimidin-4-amine]
25 to 50	C#CCN1CCC(Oc2ccnc3ccsc23)CC1 [Ref. example 67, 7-((1-(prop-2-yn-1-yl)piperidin-4-yl)oxy)thieno[3,2-b]pyridine]
25 to 50	Cn1nc(O)cc1CN1CCC(Oc2ccnc3ccsc23)CC1 [Ref. example 68, 1-methyl-5-((4-(thieno[3,2-b]pyridin-7-yloxy)piperidin-1-yl)methyl)-1H-pyrazol-3-ol]
≥ 75	Cn1cc(CN2CCC(Oc3ccnc4ccsc34)CC2)cn1 [Ref. example 73, 7-((1-((1-methyl-1H-pyrazol-4-yl)methyl)piperidin-4-yl)oxy)thieno[3,2-b]pyridine]
50 to 75	Cc1nn(C)cc1CN1CCC(Oc2ccnc3ccsc23)CC1 [Ref. example 74, 7-((1-((1,3-dimethyl-1H-pyrazol-4-yl)methyl)piperidin-4-yl)oxy)thieno[3,2-b]pyridine]
≥ 75	Cc1nn(C)c(C)c1CN1CCC(Oc2ccnc3ccsc23)CC1 [Ref. example 75, 7-((1-((1,3,5-trimethyl-1H-pyrazol-4-yl)methyl)piperidin-4-yl)oxy)thieno[3,2-b]pyridine]
50 to 75	Cc1c(CN2CCC(Oc3ccnc4ccsc34)CC2)cnn1C [Ref. example 76, 7-((1-((1,5-dimethyl-1H-pyrazol-4-yl)methyl)piperidin-4-yl)oxy)thieno[3,2-b]pyridine]
25 to 50	Cn1nccc1CN1CCC(Oc2ccnc3ccsc23)CC1 [Ref. example 77, 7-((1-((1-methyl-1H-pyrazol-5-yl)methyl)piperidin-4-yl)oxy)thieno[3,2-b]pyridine]
25 to 50	Cc1noc(C)c1CN1CCC(Oc2ccnc3ccsc23)CC1 [Ref. example 78, 3,5-dimethyl-4-((4-(thieno[3,2-b]pyridin-7-yloxy)piperidin-1-yl)methyl)isoxazole]
25 to 50	c1csc(CN2CCC(Oc3ccnc4ccsc34)CC2)n1 [Ref. example 79, 7-((1-(thiazol-2-ylmethyl)piperidin-4-yl)oxy)thieno[3,2-b]pyridine]
25 to 50	Cc1ncc(CN2CCC(Oc3ccnc4ccsc34)CC2)s1 [Ref. example 80, 7-((1-((2-methylthiazol-5-yl)methyl)piperidin-4-yl)oxy)thieno[3,2-b]pyridine]
50 to 75	O=C(Cn1cccn1)N1CCC(Oc2ccnc3ccsc23)CC1 [Ref. example 81, 2-(1H-pyrazol-1-yl)-1-(4-(thieno[3,2-b]pyridin-7-yloxy)piperidin-1-yl)ethan-1-one]
50 to 75	O=C(Cn1nccn1)N1CCC(Oc2ccnc3ccsc23)CC1 [Ref. example 82, 1-(4-(thieno[3,2-b]pyridin-7-yloxy)piperidin-1-yl)-2-(2H-1,2,3-triazol-2-yl)ethan-1-one]
25 to 50	C=CCn1oc(CN2CCC(Oc3ccnc4ccsc34)CC2)cc1=O [Ref. example 84, 2-allyl-5-((4-(thieno[3,2-b]pyridin-7-yloxy)piperidin-1-yl)methyl)isoxazol-3(2H)-one]

SMILES	remaining binding at 1 µM [%]
Cc1cc2nccc(OC3CCN(Cc4cc(O)no4)CC3)c2s1 [Ref. example 87, 5-((4-((2-methylthieno[3,2-b]pyridin-7-yl)oxy)piperidin-1-yl)methyl)isoxazol-3-ol]	25 to 50
Cc1cc2nccc(OC3CCN(C(C)c4cc(O)no4)CC3)c2s1 (centres unmarked) [Ref. example 88, 5-(1-(4-((2-methylthieno[3,2-b]pyridin-7-yl)oxy)piperidin-1-yl)ethyl)isoxazol-3-ol]	25 to 50

Same assay, conditions: second symbol of cell; read-out: IRAK-M binding inhibition IC50 value

IC50 [nM]	SMILES
100 to 300	C=CCOc1cc(CN2CCC(Oc3ccnc4ccsc34)CC2)n(C)n1 [Ref. example 69, 7-((1-((3-(allyloxy)-1-methyl-1H-pyrazol-5-yl)methyl)piperidin-4-yl)oxy)thieno[3,2-b]pyridine]
100 to 300	C=CCOc1cc(CN2CCC(Oc3ncnc4ccsc34)CC2)on1 [Ref. example 70, 3-(allyloxy)-5-((4-(thieno[3,2-d]pyrimidin-4-yloxy)piperidin-1-yl)methyl)isoxazole]
30 to 100	C#CCOc1cc(CN2CCC(Oc3ccnc4ccsc34)CC2)on1 [Ref. example 71, 3-(prop-2-yn-1-yloxy)-5-((4-(thieno[3,2-b]pyridin-7-yloxy)piperidin-1-yl)methyl)isoxazole]
30 to 100	C=CCOc1cc(CN2CCC(Oc3ccnc4cc(C)sc34)CC2)on1 [Ref. example 72, 3-(allyloxy)-5-((4-((2-methylthieno[3,2-b]pyridin-7-yl)oxy)piperidin-1-yl)methyl)isoxazole]
< 30	C=CCOc1cc(C(C)N2CCC(Oc3ccnc4ccsc34)CC2)on1 (centres unmarked) [Ref. example 83, 3-(allyloxy)-5-(1-(4-(thieno[3,2-b]pyridin-7-yloxy)piperidin-1-yl)ethyl)isoxazole]
100 to 300	COCCOc1cc(CN2CCC(Oc3ccnc4ccsc34)CC2)on1 [Ref. example 85, 3-(2-methoxyethoxy)-5-((4-(thieno[3,2-b]pyridin-7-yloxy)piperidin-1-yl)methyl)isoxazole]
100 to 300	C=CCOc1cc(CN2CCC(Oc3ccnc4cc(C#N)sc34)CC2)on1 [Ref. example 86, 7-((1-((3-(allyloxy)isoxazol-5-yl)methyl)piperidin-4-yl)oxy)thieno[3,2-b]pyridine-2-carbonitrile]

Biological target: T2, human XIAP_BIR3 domain purified protein (Homo sapiens, UniProt P98170)
T2 construct: purchased R & D
Experiment: XIAP binding inhibitory activity (HTRF, b-Smac ligand)
Settings: concentration of the test compound 3 μM; first symbol of cell; read-out: XIAP binding inhibition rate
Procedure: Human XIAP binding inhibitory activity was measured by the Homogeneous Time Resolved Fluorescence (HTRF) method with using commercially available human XIAP_BIR3 domain purified protein (R & D) and as a ligand a Smac N-terminal peptide (AVPIAQK (SEQ ID NO: 1)) (hereinafter referred to as “b-Smac”; Peptide Research Laboratories, Inc.) biotinylated at the C-terminus according to a conventional method.
The HTRF method will be described in detail below.
The test compound diluted with a reaction buffer (25 mM HEPES Buffer containing 100 mM NaCl, 0.1% BSA, and 0.1% triton X-100, pH 7.5) was added to a 384-well white shallow bottom plate (Greiner 784076) at 1 μL/well and flash centrifuged for 30 seconds. Subsequently, human XIAP_BIR3 domain purified protein was diluted with the reaction buffer to obtain a 90 nM sample diluent, and the resultant sample diluent was added to the above-mentioned white superficial plate at 4.5 μL/well and flash centrifuged for 30 seconds. Subsequently, b-Smac diluted to 90 nM with the reaction buffer was added to the above-mentioned white superficial plat at 4.5 μL/well and flash centrifuged for 30 seconds. A mixed solution of Anti-6 HIS-Cryptate (Eu^3+ Cryptate-conjugated mouse monoclonal antibody anti-6 Histidine; cisbio) and Streptavidin-XL^eat (Highgrade XL665-conjugated streptavidin; cisbio) both diluted 100-fold with HTRF detection buffer (cisbio) at a volume ratio of 1:1 was added to the above white superficial plate at 10 μL/well. After flash centrifuging the white shallow bottom plate for 30 seconds, the white shallow bottom plate was left at room temperature for 4 hours or more in the dark. The white superficial plate after being left was subjected to fluorescence intensity measurement (excitation wavelength: 320 nm, fluorescence wavelength: 665 nm and 615 nm) by EnVision (Perkin Elmer). The binding inhibition rate (%) was calculated based on the HTRF ratio in the presence of the test compound to the HTRF ratio in the absence of the test compound (fluorescence intensity at 665 nm/fluorescence intensity at 615 nm).
The XIAP binding inhibition rate (%) of test compounds was evaluated.

T2 sequence (P98170 252-356 limits assumed): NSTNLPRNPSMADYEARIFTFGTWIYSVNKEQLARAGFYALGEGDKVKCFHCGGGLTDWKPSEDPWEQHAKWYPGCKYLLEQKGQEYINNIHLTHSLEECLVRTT

inhibition at 3 µM [%]	SMILES
> 25	CN[C@@H](C)C(=O)N[C@H](C(=O)N1CCN(C(=O)c2cc3cc(F)c(F)cc3n2CCOCCOCCOc2cc(CN3CCC(Oc4ccnc5ccsc45)CC3)on2)CC1)C1CCCCC1 [Example 30, (S)-N-((S)-1-cyclohexyl-2-(4-(5,6-difluoro-1-(2-(2-(2-((5-((4-(thieno[3,2-b]pyridin-7-yloxy)piperidin-1-yl)methyl)isoxazol-3-yl)oxy)ethoxy)ethoxy)ethyl)-1H-indole-2-carbonyl)piperazin-1-yl)-2-oxoethyl)-2-(methylamino)propanamide]

Same assay, conditions: second symbol of cell; read-out: XIAP binding inhibition IC50 value

IC50 [nM]	SMILES
3000 to 30000	CN[C@@H](C)C(=O)N[C@H](C(=O)N1CCN(C(=O)c2cc3cc(F)ccc3n2CC(=O)N2C[C@@H](Oc3cc(CN4CCC(Oc5ccnc6ccsc56)CC4)on3)C[C@H]2CO)[C@@H](C)C1)C1CCCCC1 [Example 43, (S)-N-((S)-1-cyclohexyl-2-((S)-4-(5-fluoro-1-(2-((2S,4S)-2-(hydroxymethyl)-4-((5-((4-(thieno[3,2-b]pyridin-7-yloxy)piperidin-1-yl)methyl)isoxazol-3-yl)oxy)pyrrolidin-1-yl)-2-oxoethyl)-1H-indole-2-carbonyl)-3-methylpiperazin-1-yl)-2-oxoethyl)-2-(methylamino)propanamide]
